# Source: patent US20240208896A1, “PRODRUGS OF KV7 CHANNEL OPENERS” (Xyzagen, Inc., priority 2021, published 2024)
# Where two headings read alike, the source gives them in different places.
# Columns and labels:
# [1] = Rat PK at equimolar dose to Ezogabine (20 mg/kg) in 0.5% methylcellulose; settings: for AUClast/D / Cmax/D: male cannulated rats, equimolar to Ezogabine 20 mg/kg, 0.5% methylcellulose, analyte the dosed prodrug
# Method: (§1) Blood samples were collected at the same time points over 24 hours to generate a concentration time profile. Two male rats were dosed per group. Plasma samples were analyzed by LC/MS/MS and the resulting concentration time profiles and PK parameters are provided.
# as §1, §1
# [2] = Pharmacokinetics of ezogabine prodrugs in rat (IV, IM, PO); settings: rat, in vivo, po
# Method: Blood was diluted by 10% with these stabilizers.
# Extraction of the molecules was conducted by taking a 50 uL aliquot of plasma and adding 200 uL of acetonitrile containing 200 ng/mL tolbutamide as the internal standard. Samples were precipitated in a 96 well plate, centrifuges and an aliquot transferred to a new plate, dried down under heat and nitrogen and then reconstituted in the initial mobile phase conditions of the LC-MS/MS method. […] A standard curve was prepared from 5000 ng/mL to 1 ng/mL for each analyte. Concentration data from the bioanalytical run was analyzed by Phoenix Winnonlin version 8 for noncompartmental PK analysis, plotting of concentration time curves and tabulation of PK parameters.
# 150 uL of blood were collected at predesignated time points. At completion of the study animals were asphyxiated by carbon dioxide gas and exsanguinated for euthanasia.
# [3] = Solvent solubility assessment by visual inspection; type: physicochemical
# Method: Compounds were weighed and placed into a 4 dram vials and solvents were added to the target concentration. Compounds were vortex and visually inspected for particulates and considered soluble if clear upon visual inspection with and without magnification. Solubility was reported as either greater than (>) or less than (<) from the prepared concentration. […] It was evaluated at 10 mg/mL in 0.1 N NaCl and was freely soluble. It was evaluate at 1 mg/mL in 0.1 N NaOH and 0.1 N Na2HPO4 and was freely soluble. In ethanol and methanol it was freely soluble at a concentration of 75 mg/mL. […] It was freely soluble at 75 mg/mL in methanol and ethanol. It was soluble at 1 mg/mL in 1N HCl.
# [4] = 1000 ng/mL
# Method: Plasma was collected by the biomaterial vendor and kept frozen at −20° C.
# The samples were analyzed by HPLC separation and mass spectrometry detection for prodrug amount, relative to a baseline time 0 control sample. Triplicate samples were generated at each time point and the peak area response was averaged and converted to a percent of baseline control.
# Human Kv7.2/7.3 = Human Kv7.2/7.3 (Homo sapiens, UniProt O43525+O43526); assay: In vitro screen of Kv7.2/7.3 voltage gated potassium channels (FluxOR, FLIPR); type: cell-based; settings: Human Kv7.2/7.3 cells; FluxOR fluorescence; 0.03 to 30 μM
# Chain of Human Kv7.2/7.3 (O43526 whole entry): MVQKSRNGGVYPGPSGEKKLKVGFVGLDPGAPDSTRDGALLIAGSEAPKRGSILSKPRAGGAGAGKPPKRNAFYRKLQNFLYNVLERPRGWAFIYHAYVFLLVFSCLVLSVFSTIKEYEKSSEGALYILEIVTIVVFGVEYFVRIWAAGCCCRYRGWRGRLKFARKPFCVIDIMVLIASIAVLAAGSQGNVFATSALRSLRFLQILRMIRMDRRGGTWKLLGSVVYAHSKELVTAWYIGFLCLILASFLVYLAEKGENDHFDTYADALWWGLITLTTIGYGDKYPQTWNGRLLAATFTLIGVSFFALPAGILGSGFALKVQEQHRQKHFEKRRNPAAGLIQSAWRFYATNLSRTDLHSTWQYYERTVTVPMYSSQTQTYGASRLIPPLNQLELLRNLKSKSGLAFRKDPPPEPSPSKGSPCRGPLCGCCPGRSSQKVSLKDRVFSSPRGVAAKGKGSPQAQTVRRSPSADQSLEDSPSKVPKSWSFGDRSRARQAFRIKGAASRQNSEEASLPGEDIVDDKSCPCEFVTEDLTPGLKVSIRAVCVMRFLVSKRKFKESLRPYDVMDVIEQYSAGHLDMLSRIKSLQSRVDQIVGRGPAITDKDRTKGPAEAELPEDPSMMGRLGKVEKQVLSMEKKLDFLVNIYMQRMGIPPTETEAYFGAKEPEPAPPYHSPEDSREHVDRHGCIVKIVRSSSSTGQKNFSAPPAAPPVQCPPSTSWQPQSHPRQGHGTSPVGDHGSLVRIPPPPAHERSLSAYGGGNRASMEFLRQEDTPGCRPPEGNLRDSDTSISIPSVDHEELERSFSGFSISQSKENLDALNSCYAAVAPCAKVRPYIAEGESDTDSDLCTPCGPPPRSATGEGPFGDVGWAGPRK
# Chain of Human Kv7.2/7.3 (O43525 whole entry): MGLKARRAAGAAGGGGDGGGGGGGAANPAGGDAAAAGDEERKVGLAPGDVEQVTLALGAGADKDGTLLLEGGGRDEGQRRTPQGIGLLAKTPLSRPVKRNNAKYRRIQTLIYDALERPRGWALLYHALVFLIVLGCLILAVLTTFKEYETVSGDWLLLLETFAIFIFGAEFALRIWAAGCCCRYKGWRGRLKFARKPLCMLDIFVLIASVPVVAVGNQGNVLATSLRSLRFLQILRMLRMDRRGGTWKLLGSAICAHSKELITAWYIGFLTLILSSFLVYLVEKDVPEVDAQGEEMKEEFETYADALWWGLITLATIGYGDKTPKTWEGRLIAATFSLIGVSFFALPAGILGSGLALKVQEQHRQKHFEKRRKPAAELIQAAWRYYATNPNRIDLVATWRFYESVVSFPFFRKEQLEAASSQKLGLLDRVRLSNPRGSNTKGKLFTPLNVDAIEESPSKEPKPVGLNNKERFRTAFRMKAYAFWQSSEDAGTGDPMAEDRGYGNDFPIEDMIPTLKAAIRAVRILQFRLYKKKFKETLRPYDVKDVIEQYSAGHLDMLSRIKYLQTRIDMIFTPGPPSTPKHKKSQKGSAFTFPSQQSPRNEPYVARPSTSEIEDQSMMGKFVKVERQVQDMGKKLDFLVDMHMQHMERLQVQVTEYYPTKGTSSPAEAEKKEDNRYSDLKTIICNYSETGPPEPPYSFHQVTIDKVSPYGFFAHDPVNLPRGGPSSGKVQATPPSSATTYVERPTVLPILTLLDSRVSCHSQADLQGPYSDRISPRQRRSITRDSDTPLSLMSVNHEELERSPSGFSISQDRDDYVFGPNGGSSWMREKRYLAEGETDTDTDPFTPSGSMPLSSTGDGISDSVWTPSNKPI
# Method: Human Kv7.2/7.3 cells are harvested, counted and seeded in black, clear-bottomed 96 well plates at a density of 50,000 cells per well in 100 μl volume and incubated overnight. The following day, media was removed and 40 μl of loading buffer (4.895 mL HBSS:HEPES, 50 μL probenecid, 50 μL power load, 5 μl FluxOR reagent) was added and incubated at room temperature for 30 minutes. After incubation loading buffer was removed and 40 μl of assay buffer added (4.45 ml HBSS:HEPES, 500 μl FluxOR assay buffer and 50 μL probenecid) and incubated for 10 minutes.
# [5] = Benchtop solvent stability exposed to light, HPLC-UV 230 nm, up to 7 days; type: physicochemical; settings: for Stability in solvent: benchtop, exposed to light
# Method: Compounds in solvent were left on the benchtop exposed to light for up to 7 days since it is known that Compound 1 will degrade with light within 3-7 days.
# Stability was assessed by taking an aliquot from the solubility vials at each test day. A single replicate was injected for each test condition.
# Samples were injected onto an HPLC system with an aqueous mobile phase and acetonitrile organic phase and compounds were separated on a C8 50×2 mm column. Wavelength 230 nm was monitored for absorption and integrated for peak area while the mass spectrometer was used to confirm mass. Samples were tested on Day 1 and on subsequent days through Day 7.
# [6] = test system: CCI model of neuropathic pain; assay: CCI model of neuropathic pain (pin prick, von Frey); type: in vivo, Sprague Dawley rat; settings: CCI rats, 1 h after pretreatment
# Method: Compound 3 was tested for reversal of mechanical hypersensitivity to the pin prick test for hindlimb paw withdraw and the von Frey hairs for gram force mechanical allodynia in the CCI model of neuropathic pain. Male Sprague Dawley rats (n=8/group) were tested for baseline sensitivity on Day 1 (ipsilateral and contralateral paws) and administered XYG-203 orally; 40 mg/kg on Day 1, 20 mg/kg Day 3, 10 mg/kg Day 5, 5 mg/kg Day 7, 1 mg/kg Day 10 and baseline on Day 12. Mechanical hypersensitivity was tested 1 h after pretreatment. Data (mean±SD) were analyzed with a repeated measures ANOVA with Dunnet's adjustment for multiple comparisons.
# [7] = Acid and organic solution stability, HPLC-UV 250 nm; settings: 5 mg/mL; for Degradation / conversion to ezogabine in solution: acidic solutions and organic solvents, up to 3 weeks
# Method: An HPLC-UV Vis method was developed using 0.1% Formic acid in water as mobile phase A and 0.1% Formic acid in acetonitrile as mobile Phase B. A gradient method was developed ramping from 10% A to 90% B over 8 minutes and then returning to 10% A at 8.5 minutes on a 4.6×50 mm Zorbax C-18 column. Injections of 10 uL of stability solutions were injected for analyte detection.
# […] Aliquots were collected at serial time points and then diluted to a nominal concentration of 100 ug/mL for injection to the HPLC and 250 nm monitored by the diode array detector. Data at approximately 10 days is presented.
# Aliquots were collected at serial time points and then diluted to a nominal concentration of 100 ug/mL for injection to the HPLC and 250 nm monitored by the diode array detector.
# (§2) It was also evaluated at 2 N HCl at 37° C. Aliquots were collected at serial time points and then diluted to a nominal concentration of 100 ug/mL for injection to the HPLC and 250 nm monitored by the diode array detector.
# as §2, §2, §2
compound,measurement,setting,value
CCOC(=O)Nc1ccc(NCc2ccc(F)cc2)cc1NC(=O)OC(C)OC(=O)C(C)C (stereo not shown) [Compound 3],AUClast/D,[1],0.0136 ng·h/mL/mg/kg
same,Cmax/D,[1],0.0273 ng/mL/mg/kg
same,Total exposure of ezogabine relative to ezogabine on a given molar dose,"[1]; male, rat, in vivo",> 2 fold
same,Exposure of the prodrug itself in systemic circulation,[2],very little exposure
same,Solubility,[3]; 0.1N HCl,<1000 µg/mL
same,Solubility,"[3]; 0.1 N Na2HPO4, aqueous buffer, thermodynamic from solid, read-out: Solubility (freely soluble at tested concentration)",< 1000 µg/mL
same,Solubility,[3]; 0.1N NaCl,<1000 µg/mL
same,Solubility,"[3]; 0.1 N NaCl, saline or isotonic, thermodynamic from solid, read-out: Solubility (freely soluble at tested concentration)",< 1000 µg/mL
same,Solubility,[3]; 0.1N NaOH,<1000 µg/mL
same,Solubility,"[3]; 0.1 N NaOH, aqueous buffer, thermodynamic from solid, read-out: Solubility (freely soluble at tested concentration)",< 1000 µg/mL
same,Solubility,[3]; 0.1 Na2HPO4,<1000 µg/mL
same,Solubility,[3]; 1N HCl,>1000 µg/mL
same,Solubility,[3]; Ethanol,>75000 µg/mL
same,Solubility,[3]; Methanol,>75000 µg/mL
same,Solubility,[3]; Water,<1000 µg/mL
same,Solubility,"[3]; aqueous buffer, thermodynamic from solid, 1N HCl, read-out: Solubility (soluble at tested concentration)",> 1000 µg/mL
same,Solubility,"[3]; ethanol, organic solvent or mixture, thermodynamic from solid, read-out: Solubility (freely soluble at tested concentration)",> 75000 µg/mL
same,Solubility,"[3]; methanol, organic solvent or mixture, thermodynamic from solid, read-out: Solubility (freely soluble at tested concentration)",> 75000 µg/mL
same,Solubility,"[3]; simulated gastric fluid, thermodynamic from solid, 0.1N HCl, read-out: Solubility (freely soluble at tested concentration)",< 1000 µg/mL
same,Solubility,"[3]; water, thermodynamic from solid, read-out: Solubility (freely soluble at tested concentration)",< 1000 µg/mL
same,Time by which prodrug is degraded in plasma,[4]; mouse,≤ 1 h
same,Time by which prodrug is degraded in plasma,[4]; rat,≤ 1 h
same,Activity against the primary target of Kv7.2/7.3,Human Kv7.2/7.3,inactive
same,Stability in solvent,[5]; 0.1 N HCl,appears to be stable over 4 days
same,Change of solubility over time,"[5]; 0.1N Na2HPO4, H2O, 0.1N NaCl, Day 1 to Day 3",increases in solubility over time
same,Stability in solvent,[5]; 1 N HCl,not stable in 1 N HCl over 7 days
same,Stability in solvent,[5]; ethanol and methanol,"soluble and stable through 3 days in ethanol and methanol, while on Day 4 it exhibits degradation"
same,Reversal of mechanical hypersensitivity vs baseline,[6]; oral 5 mg/kg,the 95% confidence intervals did not cross the baseline mean
same,Gram force to paw lift (von Frey),[6]; oral 40 mg/kg,increased the gram force to paw lift significantly
same,Reduction of latency of neuropathic ipsilateral paw withdrawal (pin prick),"[6]; oral 40 mg/kg, p=0.0003",9.2 s
same,Colour of stability solution,[7],clear and colorless through Day 18
same,Ezogabine Area (formed from the prodrug),"[7]; 0.1N HCl, room temp., normal light, 433 h",400 mAU
same,Ezogabine Area (formed from the prodrug),"[7]; 1N HCl, room temp., normal light, 97 h",2881 mAU
same,Ezogabine Area (formed from the prodrug),"[7]; Acetonitrile, room temp., normal light, 435 h",51 mAU
same,Ezogabine Area (formed from the prodrug),"[7]; Ethanol, room temp., normal light, 390 h",43 mAU
same,Ezogabine Area (formed from the prodrug),"[7]; Methanol, room temp., normal light, 435 h",41 mAU
same,Degradation / conversion to ezogabine in solution,[7],converts to ezogabine under acidic conditions but does not in organic solvent
same,Colour of stability solution,[7]; 9 days,turned a golden yellow by Day 9
same,% Remaining,[7]; 390 h,97.6%
same,% Remaining,"[7]; buffer, 97 h",1.78%
same,% Remaining,"[7]; buffer, 433 h",11.8%
CCOC(=O)Nc1ccc(NCc2ccc(F)cc2)cc1NC(=O)[C@H](N)CO [Compound 6],AUClast/D,[1],199 ng·h/mL/mg/kg
same,Cmax/D,[1],233 ng/mL/mg/kg
same,Colour of stability solution,[7],remained clear and colorless through Day 18
same,Ezogabine Area (formed from the prodrug),"[7]; 1N HCl, room temp., normal light, 437 h",58 mAU
same,Ezogabine Area (formed from the prodrug),"[7]; 2N HCl 37C, 437 h",461 mAU
same,Ezogabine Area (formed from the prodrug),"[7]; 2N HCl, room temp., normal light, 437 h",177 mAU
same,Ezogabine Area (formed from the prodrug),"[7]; Methanol, room temp., normal light, 437 h",184 mAU
same,Degradation / conversion to ezogabine in solution,[7],very little degradation to ezogabine
same,% Remaining,[7]; 437 h,67.7%
CCNC(=O)CC[C@H](N)C(=O)Nc1cc(NCc2ccc(F)cc2)ccc1NC(=O)OCC.Cl [Compound 29],AUClast/D,[1],305 ng·h/mL/mg/kg
same,Cmax/D,[1],44.2 ng/mL/mg/kg
same,Ezogabine Area (formed from the prodrug),"[7]; 0.1N HCl, room temp., normal light, 441 h",0 mAU
same,Ezogabine Area (formed from the prodrug),"[7]; 1N HCl, room temp., normal light, 441 h",1241 mAU
same,Ezogabine Area (formed from the prodrug),"[7]; 2N HCl 37C, 441 h",1755 mAU
same,Ezogabine Area (formed from the prodrug),"[7]; 2N HCl, room temp., normal light, 441 h",1659 mAU
same,Ezogabine Area (formed from the prodrug),"[7]; Methanol, room temp., normal light, 441 h",0 mAU
same,Degradation / conversion to ezogabine in solution,[7],exhibits degradation under acidic conditions and also conversion to ezogabine
